Reference: US7557100B2, “Antibacterial agents” (Pfizer Inc., priority 2005, dated 2009)
Converted amounts (≈) assume the structure as drawn.

Assays:
[1] = test system: Staphylococcus aureus SA-1 (UC-76); test: Microbroth dilution MIC testing against S. aureus; assay type: cell-based; conditions: S. aureus UC76, CAMHB, 35° C., 16 to 24 hours, read-out: Minimum Inhibitory Concentration S. aureus UC76
Description: (§1) In this example, the in vitro antibacterial activity of selected compounds was determined against S. aureus and H. influenzae. Except for clarifying or modifying statements, MIC testing followed procedures recommended by the NCCLS^1-2 or followed the descriptions cited below.
(§2) Bacterial Cultures At least the following organisms are included in the screen: Staphylococcus aureus SA-1 (UC-76) and H. influenzae HI-3542. Incubations were at 35° C. Stock bacterial cultures were maintained on Tryptic Soy Agar containing 5% Sheep Blood (BD, Becton Dickinson Microbiology Systems, Cockeysville, Md.), anaerobes were maintained on Anaerobic Blood Agar plates—CDC Formulation (BD), and fastidious organisms were maintained on Chocolate Agar II Plates (BD). Specific conditions of handling are listed below.
(§3) Standardized Organism Inocula Frozen stock cultures were used as the initial source of organisms for performing microbroth dilution MIC testing. Stock cultures were passed on their standard growth medium for at least 1 growth cycle (18 24 hours) prior to their use.
(§4) Most bacteria, unless otherwise noted, were prepared directly from agar plates in 10 mL aliquots of the appropriate broth medium. Bacterial cultures were adjusted to the opacity of a 0.5 McFarland Standard (optical density value of 0.28-0.33 on a Perkin-Elmer Lambda EZ150 Spectrophotometer Wellesley, Mass., set at a wavelength of 600 nm).). The adjusted cultures were diluted 400 fold (0.25 mL inoculum+100 mL broth) in growth media to produce a starting suspension of approximately 5×10^5 colony forming units (CFU)/mL. Unless otherwise noted, bacterial strains were tested in cation adjusted Mueller Hinton Broth (CAMHB).
(§5) Test Compound (“Drug”) Preparation Compounds were solubilized in DMSO. Drug stock solutions were prepared on the day of testing. Drugs were weight corrected for assay content where necessary.
(§6) Drug Dilution Tray Preparation Microbroth dilution stock plates were prepared in two dilution series, 64 to 0.06 μg drug/mL and 0.25 to 0.00025 μg drug/mL. For the high concentration series, 200 μL of stock solution (2 mg/mL) was added to duplicate rows of a 96-well microtiter plate. This was used as the first well in the dilution series. Serial two-fold decremental dilutions were made using a BioMek FX robot (Beckman Coulter Inc., Fullerton, Calif.) with 10 of the remaining 11 wells, each of which contained 100 μL of the appropriate solvent/diluent. Row 12 contained solvent/diluent only and served as the control. For tube one of the low concentration series, 200 μL of an 8 μg/mL stock was added to duplicate rows of a 96-well plate. Serial two-fold dilutions were made as described above.
(§7) Daughter plates were spotted (3.2 μL/well) from the stock plates listed above using the BioMek FX robot and were either used immediately or frozen at −70° C. until use.
(§8) Plate Inoculation Aerobic organisms were inoculated (100 μL volumes) into the thawed plates using the BioMek FX robot. The inoculated plates were placed in stacks of no more than 5 and covered with an empty plate. These plates were incubated 16 to 24 hours in ambient atmosphere according to CLSI guidelines^2.
(§9) Reading the Test After inoculation and incubation, the degree of bacterial growth was estimated visually with the aid of a Test Reading Mirror (Dynex Technologies 220 16) in a darkened room with a single light shining directly through the top of the microbroth tray. The MIC was the lowest concentration of drug that prevented macroscopically visible growth under the conditions of the test. Testing was performed in duplicate. When the MIC values in duplicate tests varied by 1 well (2 fold), the lower values were reported. If the MICs varied by 2 dilutions, the middle value was reported. Greater than this 4 fold variance called for the test to be repeated, after which a similar determination was applied to all values.

[2] = test system: H. influenzae HI-3542; test: Microbroth dilution MIC testing against H. influenzae; assay type: cell-based; conditions: HI3542, H. influenzae 3542, Haemophilus Test Medium, 35° C., 16 to 24 hours, read-out: Minimum Inhibitory Concentration H. influenzae 3542
Description: as §1, §2
Haemophilus was maintained on Chocolate Agar II Plates at room temperature in a candle jar providing a 3 5% CO2 atmosphere.
as §3, §4
Haemophilus influenzae strains were grown on Chocolate Agar II Plates and tested in Haemophilus Test Medium (Remel, Lenexa, Kans.).
as §5, §6, §7, §8
as §9, with “Greater than this 4 fold variance called for the test to be repeated, after which a similar determination was applied to all values.” left out

Row | SMILES | MIC [1] [µg/mL] | MIC [2] [µg/mL]
1 | COc1cnc(-c2cc3c(c(F)c2F)N2C[C@@H](C)O[C@@H](C)[C@@H]2C2(C3)C(=O)NC(=O)NC2=O)cn1 [Compound 25, (2R,4S,4aS)-9,10-difluoro-8-(5-methoxypyrazin-2-yl)-2,4-dimethyl-1,2,4,4a-tetrahydro-2′H,6H-spiro[1,4-oxazino[4,3-a]quinoline-5,5′-pyrimidine]-2′,4′,6′(1′H,3′H)-trione] | 0.125 (≈ 0.264 µM) | 0.5 (≈ 1.06 µM)
2 | CCOc1cnc(-c2cc3c(c(F)c2F)N2C[C@@H](C)O[C@@H](C)[C@@H]2C2(C3)C(=O)NC(=O)NC2=O)cn1 [Compound 26, (2R,4S,4aS)-8-(5-ethoxypyrazin-2-yl)-9,10-difluoro-2,4-dimethyl-1,2,4,4a-tetrahydro-2′H,6H-spiro[1,4-oxazino[4,3-a]quinoline-5,5′-pyrimidine]-2′,4′,6′(1′H,3′H)-trione] | 0.25 (≈ 0.513 µM) | 1 (≈ 2.05 µM)
